Test results reported in patent publication US9708314B2, “Heterocyclic amide compound” (NISSAN CHEMICAL INDUSTRIES, LTD., priority 2013, dated 2017).

Tests used:
Format in all cases: in vivo
[1] = test system: Echinochloa oryzacola Vasing.; assay: Test Example 1: herbicidal activity, application before weed generation in submerged conditions; settings: Application herbicide amount 320 g/ha; Seventeenth Table
How it was run: (§1)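 Pre-emergence application to water surface of submerged pots (4 cm depth, alluvial soil) on sowing day, with 2.5-leaf rice transplanted; emulsion diluted to g/ha rates. Grown in greenhouse at 25–30 °C; 0–5 herbicidal/crop-effect score after three weeks.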

Monochoria vaginalis [2] = assay: as above; settings: Application herbicide amount 320 g/ha; Seventeenth Table
How it was run: as §1

Scirpus juncoides [3] = assay: as above; settings: Application herbicide amount 320 g/ha; Seventeenth Table
How it was run: as §1

Leptochloa chinensis = assay: Test Example 3: herbicidal effect by application to foliage (Wagner pot, water depth 0.1-0.5 cm); settings: Nineteenth Table; application to foliage; application herbicide amount 320 g/ha
How it was run: (§2)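 Wagner pot foliar test: sow, grow 14 d (25–30 °C), spray diluted emulsion at set g/ha, score after 3 wk; 0 ≤5%, 5 ≥90% herbicidal ratio.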

Cyperus difformis = assay: as above; settings: Nineteenth Table; application to foliage; application herbicide amount 320 g/ha
How it was run: as §2

[4] = test system: Echinochloa crus-galli var. crus-galli; assay: as above; settings: Nineteenth Table; application to foliage; application herbicide amount 320 g/ha
How it was run: as §2

[5] = test system: Echinochloa oryzacola Vasing.; assay: Test Example 2: herbicidal activity, application during weed generation in submerged conditions; settings: Eighteenth Table; application herbicide amount 320 g/ha
How it was run: (§3)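 Mixed sowings in flooded alluvial soil (4 cm water), greenhouse 25-30 °C; emulsifiable concentrate diluted in water applied to the water surface at the 1-2 leaf stage, rate in g/ha. Effect scored three weeks later on a 0-5 scale (5 = ≥90% herbicidal ratio, 0 = ≤5%).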

Monochoria vaginalis [6] = assay: as above; settings: Eighteenth Table; application herbicide amount 320 g/ha
How it was run: as §3

Scirpus juncoides [7] = assay: as above; settings: Eighteenth Table; application herbicide amount 320 g/ha
How it was run: as §3

[8] = test system: directly sowed Oryza sativa; assay: Test Example 3: effect on crop by application to foliage (Wagner pot, water depth 0.1-0.5 cm); settings: Nineteenth Table; application to foliage; application herbicide amount 320 g/ha
How it was run: as §2

| Compound | A: Echinochloa oryzicola Vasing. (herbicidal effect grade) [1] | C: Monochoria vaginalis (herbicidal effect grade) (Monochoria vaginalis [2]) | B: Scirpus juncoides (herbicidal effect grade) (Scirpus juncoides [3]) | D (herbicidal effect grade) (Leptochloa chinensis) | E (herbicidal effect grade) (Cyperus difformis) | H (herbicidal effect grade) [4] | A (Echinochloa oryzicola Vasing.) herbicidal ratio grade [5] | C (Monochoria vaginalis) herbicidal ratio grade (Monochoria vaginalis [6]) | B (Scirpus juncoides) herbicidal ratio grade (Scirpus juncoides [7]) | b (effect on crop grade) [8] |
| --- | --- | --- | --- | --- | --- | --- | --- | --- | --- | --- |
| Cn1nnnc1NC(=O)c1ccc(C(F)(F)F)n2c(C3CCCC3)nnc12 [2-021] | 5 (Herbicidal ratio of 90% or more (almost completely withered)) | 5 (Herbicidal ratio of 90% or more (almost completely withered)) | 5 (Herbicidal ratio of 90% or more (almost completely withered)) | 5 (Herbicidal ratio of 90% or more (almost completely withered)) | 5 (Herbicidal ratio of 90% or more (almost completely withered)) | 5 (Herbicidal ratio of 90% or more (almost completely withered)) | 5 (Herbicidal ratio of 90% or more (almost completely withered)) | 4 (Herbicidal ratio of 70% or more and less than 90%) | 4 (Herbicidal ratio of 70% or more and less than 90%) | 5 (Herbicidal ratio of 90% or more (almost completely withered)) |
| Cn1nnnc1NC(=O)c1ccc(C(F)(F)F)n2c(C3CCOC3)nnc12 (stereo not shown) [2-022] | 5 (Herbicidal ratio of 90% or more (almost completely withered)) | 5 (Herbicidal ratio of 90% or more (almost completely withered)) | 5 (Herbicidal ratio of 90% or more (almost completely withered)) | 5 (Herbicidal ratio of 90% or more (almost completely withered)) | 5 (Herbicidal ratio of 90% or more (almost completely withered)) | 5 (Herbicidal ratio of 90% or more (almost completely withered)) | 5 (Herbicidal ratio of 90% or more (almost completely withered)) | 4 (Herbicidal ratio of 70% or more and less than 90%) | 5 (Herbicidal ratio of 90% or more (almost completely withered)) | 5 (Herbicidal ratio of 90% or more (almost completely withered)) |
| CC(C)c1nnc2c(C(=O)N(C)c3nnnn3C)ccc(C(F)(F)F)n12 [2-023] | 2 (Herbicidal ratio of 20% or more and less than 40%) | 0 (Herbicidal ratio of 5% or less (almost no effect)) | 1 (Herbicidal ratio of 5% or more and less than 20%) | 1 (Herbicidal ratio of 5% or more and less than 20%) | 0 (Herbicidal ratio of 5% or less (almost no effect)) | 4 (Herbicidal ratio of 70% or more and less than 90%) | 0 (Herbicidal ratio of 5% or less (almost no effect)) | 1 (Herbicidal ratio of 5% or more and less than 20%) | 1 (Herbicidal ratio of 5% or more and less than 20%) | 1 (Herbicidal ratio of 5% or more and less than 20%) |
| CCSc1nnc2c(C(=O)Nc3nnnn3C)ccc(C(F)(F)F)n12 [2-024] | 5 (Herbicidal ratio of 90% or more (almost completely withered)) | 5 (Herbicidal ratio of 90% or more (almost completely withered)) | 5 (Herbicidal ratio of 90% or more (almost completely withered)) | 5 (Herbicidal ratio of 90% or more (almost completely withered)) | 5 (Herbicidal ratio of 90% or more (almost completely withered)) | 5 (Herbicidal ratio of 90% or more (almost completely withered)) | 5 (Herbicidal ratio of 90% or more (almost completely withered)) | 4 (Herbicidal ratio of 70% or more and less than 90%) | 4 (Herbicidal ratio of 70% or more and less than 90%) | 5 (Herbicidal ratio of 90% or more (almost completely withered)) |
| CC(C)Sc1nnc2c(C(=O)Nc3nnnn3C)ccc(C(F)(F)F)n12 [2-025] | 5 (Herbicidal ratio of 90% or more (almost completely withered)) | 5 (Herbicidal ratio of 90% or more (almost completely withered)) | 5 (Herbicidal ratio of 90% or more (almost completely withered)) | 5 (Herbicidal ratio of 90% or more (almost completely withered)) | 5 (Herbicidal ratio of 90% or more (almost completely withered)) | 5 (Herbicidal ratio of 90% or more (almost completely withered)) | 5 (Herbicidal ratio of 90% or more (almost completely withered)) | 5 (Herbicidal ratio of 90% or more (almost completely withered)) | 4 (Herbicidal ratio of 70% or more and less than 90%) | 5 (Herbicidal ratio of 90% or more (almost completely withered)) |
| CCOCc1nnc2c(C(=O)Nc3nnnn3C)ccc(C(F)(F)F)n12 [2-026] | 5 (Herbicidal ratio of 90% or more (almost completely withered)) | 4 (Herbicidal ratio of 70% or more and less than 90%) | 5 (Herbicidal ratio of 90% or more (almost completely withered)) | 5 (Herbicidal ratio of 90% or more (almost completely withered)) | 5 (Herbicidal ratio of 90% or more (almost completely withered)) | 5 (Herbicidal ratio of 90% or more (almost completely withered)) | 5 (Herbicidal ratio of 90% or more (almost completely withered)) | 4 (Herbicidal ratio of 70% or more and less than 90%) | 5 (Herbicidal ratio of 90% or more (almost completely withered)) | 5 (Herbicidal ratio of 90% or more (almost completely withered)) |
| Cn1nnnc1NC(=O)c1ccc(C(F)(F)F)n2c(C(C)(C)C)nnc12 [2-027] | 5 (Herbicidal ratio of 90% or more (almost completely withered)) | 5 (Herbicidal ratio of 90% or more (almost completely withered)) | 5 (Herbicidal ratio of 90% or more (almost completely withered)) | 5 (Herbicidal ratio of 90% or more (almost completely withered)) | 5 (Herbicidal ratio of 90% or more (almost completely withered)) | 5 (Herbicidal ratio of 90% or more (almost completely withered)) | 5 (Herbicidal ratio of 90% or more (almost completely withered)) | 4 (Herbicidal ratio of 70% or more and less than 90%) | 4 (Herbicidal ratio of 70% or more and less than 90%) | 5 (Herbicidal ratio of 90% or more (almost completely withered)) |
